Source: patent US20190375778A1, “ADENOSINE DERIVATIVES FOR USE IN THE TREATMENT OF CANCER” (NuCana plc, priority 2016, published 2019)

Assays:
Assay type in all cases: cell-based
HL-60 cell line = experiment: Intracellular 8-Cl-ATP/ATP by LC-MS/MS, HL-60; settings: for difference in intracellular accumulation of 8-Cl-ATP on inhibiting hENT1: HL-60, with NBTI
Protocol: Cell lines with 3×10^6 cells/ml were used. Cells were treated with 1 μl of 20 μM of each 8-Cl-A, compound A, compound B and compound D and incubated for 2 hours at 37° C. with 5% CO2. After incubation, the cells were centrifuged (ambient, 1200 rpm, 5 minutes), the supernatant was removed, and the pellet was washed with lml of PBS and centrifuged (ambient, 1200 rpm, 5 minutes). The supernatant was removed, the pellet was reconstituted in 100 μl of PBS and 100 μl of 0.8M perchloric acid. This was then centrifuged (ambient, 1200 rpm, 5 minutes) and 180 μl of the supernatant was transferred to new tubes and stored at −80° C. until time of analysis.
(§1) For inhibitor studies the cell lines were treated in the same way as described above but before treatment with drugs, a number of inhibitors were added: • 1) Nitrobenzylthioinosine (NBTI) (Sigma-Aldrich, St. Louis, Mo.) inhibits hENT1. • 2) A-134974 dihydrochloride hydrate (Sigma-Aldrich, St. Louis, Mo.) inhibits adenosine kinase. • 3) EHNA hydrochloride (Sigma-Aldrich, St. Louis, Mo.) inhibits adenosine deaminase.
Cells were treated with 1 μl of 10 μM of each inhibitor and left for 5 minutes before adding the drug. The cells were then incubated for 2 hours at 37° C. with 5% CO2.
The analytes were resolved using an ultra-performance liquid chromatography system (Accela UPLC, Thermo Scientific, UK) equipped with a Biobasic A×5 μm, 50×2.1 mm column (Thermo Electron Corporation, Murrieta, Calif., USA) and mobile phase consisting of a mixture of 10 mM NH4Ac in ACN/H2O (30:70 v/v), pH6.0 (A), and 1 mM NH4Ac in ACN/H2O (30:70 v/v), pH10.5 (B). The mobile phase gradient was employed, comprising: buffer A=95% at 0-0.5 minutes, from 95 to 0% over 1.25 minutes, held at 0% for 1.75 minutes, from 0-95% over 0.1 minutes, ending with 95% for 2.9 minutes, all at a flow rate of 500 μl/min.
For compounds detection a triple stage quadrupole Vantage mass spectrometry system (Thermo Scientific, UK) equipped with an electrospray ion source was used. Samples were analysed in the Multiple Reaction Monitoring, negative ion modes at spray voltage 3000V.
(§2) The dose-response curves of cytotoxicity of the drugs was determined using non-linear regression analysis of percentage cell viability versus concentration and EC50 values were obtained. The intracellular assay was conducted in five repeats for each condition. Intracellular assay was determined using paired T test (two-tailed) analysis of 8-ChloroATP/ATP concentration and p values were obtained. Drug stability in human plasma was determined using two-way ANOVA analysis. For all the analysis, Prism Software program (GraphPad Software) was used.

HL-60 = experiment: ATP ViaLight cytotoxicity assay, HL-60; settings: Homo sapiens, HL-60, 72 h
Protocol: HL-60, CTS, and K-562 are leukaemia cell lines, which were obtained from the American Type Culture Collection (ATCC), Middlesex. HL-60 cell line is of acute promyelocytic leukaemia; CTS cell line is of acute myeloid leukaemia; and K-562 cell line is of chronic myeloid leukaemia.
HL-60, CTS, and K-562 cell lines were cultured in RPMI-1640 medium (Sigma Aldrich, UK), which was supplemented with 10% Fetal Bovine Serum (FBS) (PAA Laboratories), 1% amphotericin B (5.5 ml) and 1% penicillin/streptomycin (5.5 ml) (PAA Laboratories) and grown in flasks at 37° C. incubator with 5% CO2.
as §1
ATP ViaLight™ plus assay kit (Lonza, USA: Product No. LT07-121) was used for treating the cells in luminescence compatible 96 well plates (initial concentration of cells was 1×10^4 cells/well) with 8-Cl-A and ProTides, concentrations: 0, 0.1, 0.5, 1, 5 and 10 μM were added to cells, respectively, followed by incubation for 72 hours at 37° C. incubator with 5% CO2. For inhibitor studies, […] concentration of each inhibitor was added before drugs and incubated for 72 hours at 37° C. with 5% CO2.
After incubation, 50 μl of cell lysis reagent was added to the 96 well plates to release the intracellular ATP, followed by 100 μl of ATP monitoring reagent (AMR). The luminescent values of each well were determined using FLUOstar OPTIMA microplate reader (BMG Labtech) which converted ATP into light by using luciferase enzyme.
as §2

T24/83 = experiment: Viability assay, T24/83
Protocol: (§3) In vitro viability assay were performed to assess the effects of compounds on cell viability in selected cell lines over ˜72 hrs using the CellTiterGlo (CTG, Promega-G7573) assay. The tests were performed in duplicates with treatment of compounds at 9 points, 3.16 folds titration in 96 well plates over ˜72 hrs. The compound starting concentrations were 198 μM. Cell viability assay using CellTiterGlo in 96-well plate were performed. Compound treatment 72 hrs, standard growth conditions, duplicates. Compounds were dissolved to 40 mM with thawed […]. Compounds were serially diluted at 3.16 fold in thawed DMSO, and warmed to 37° C. before being dissolved in media (2 μl+200 μl). After compounds were dissolved in media, media containing compounds were warmed to 37° C. in incubator and then compounds in media were added to cell plates (50 μl+50 μl) in duplicates. The compounds' final concentrations were from […] to 19.9 nM. All compound solubilities were checked and recorded again, then the plates were transferred to CO2 tissue culture incubator immediately and incubated for 3 days. DMSO final concentration is 0.5%.

CAL27 = experiment: Viability assay, CAL27
Protocol: as §3

[1] = with A-134974 (adenosine kinase inhibitor)

Structure (SMILES)	difference in intracellular accumulation of 8-Cl-ATP on blocking adenosine kinase (HL-60 cell line; HL-60, with A-134974)	difference in intracellular accumulation of 8-Cl-ATP on inhibiting hENT1 (HL-60 cell line)	EC50 (HL-60; Control (no inhibitor))	EC50 (HL-60; [1])	EC50 (HL-60; with NBTI (hENT1 inhibitor))	8-Cl-ATP/ATP ratio after inhibiting adenosine kinase (HL-60 cell line; HL-60, with A-134974)	Top in. % T24/83 (T24/83)	EC50 (T24/83; T24/83, read-out: Ab EC50 (μM) T24/83)	Top in. % CAL27 (CAL27)	EC50 (CAL27; Homo sapiens, CAL-27, read-out: Ab EC50 (μM) CAL27)
Nc1ncnc2c1nc(Cl)n2[C@@H]1O[C@H](COP(=O)(NCC(=O)OC2CCCCC2)Oc2ccccc2)[C@@H](O)[C@H]1O (mixture of isomers) [Compound A, Cyclohexyl 2-(((((2R,3S,4R,5R)-5-(6-amino-8-chloro-9H-purin-9-yl)-3,4-dihydroxy-tetrahydrofuran-2-yl)methoxy)(phenoxy)phosphoryl)amino)acetate]	did not produce significant difference	did not produce significant difference	12.4 µM	–	–	–	–	–	–	–
Nc1ncnc2c1nc(Cl)n2[C@@H]1O[C@H](COP(=O)(NCC(=O)OCc2ccccc2)Oc2ccccc2)[C@@H](O)[C@H]1O (mixture of isomers) [Compound B, Benzyl 2-(((((2R,3S,4R,5R)-5-(6-amino-8-chloro-9H-purin-9-yl)-3,4-dihydroxytetra-hydrofuran-2-yl)methoxy)(phenoxy)phosphoryl)amino)acetate]	–	did not produce significant difference	0.49 µM	14.6 µM	8.76 µM	–	–	–	–	–
Nc1ncnc2c1nc(Cl)n2[C@@H]1O[C@H](CO)[C@@H](O)[C@H]1O [8-chloroadenosine, 8-Chloroadenosine, reference compound]	–	–	0.64 µM	–	0.96 µM	almost zero	77.5%	2 µM	76.5%	1.73 µM
C[C@H](NP(=O)(OC[C@H]1O[C@@H](n2c(Cl)nc3c(N)ncnc32)C(O)C1O)Oc1cccc2ccccc12)C(=O)OCc1ccccc1 (stereo partly drawn) [Compound D, (2S)-Benzyl 2-(((((2R,3S,4R,5R)-5-(6-amino-8-chloro-9H-purin-9-yl)-3,4-dihydroxy-tetrahydrofuran-2-yl)methoxynaphthalene-1-yloxy)phosphoryl)amino)propanoate]	–	did not produce significant difference	0.33 µM	21.3 µM	1.23 µM	–	–	–	–	–
